# Test results published in patent publication EP0472800A1, “Metoprololnicotinic acid ester, method of preparation and pharmaceutical use” (Sandmeier, Peter, Dr., priority 1990, dated 1992).
# Structures can show the parent of a compound that is named as a salt.
# Set-up: species or system Hunden
# Details: dog, in vivo, 0 min
# From the text: Die verhältnismässig einfache Synthese führt zu einer bemerkenswert hohen Ausbeute des erfinderischen Moleküls, der Metoprololnicotinsäure. Die an Hunden experimentierte Prodrugwirkung in drei verschiedenenen Dosen ergab folgende Retardwerte: (µg freie Base im Zielkompartiment)
# Das Resultat zeigt, dass eine relativ hohe Konzentration im Plasma bis zu vier Stunden erwartet werden kann, was die deutlich retardierte Prodrugwirkung beweist. Die Dosis C zeigt unter anderem, dass auch kleine Konzentrationen einen langanhaltenden Spiegel zeigen.
structure (smiles),measurement,value
"COCCc1ccc(OCC(CNC(C)C)OC(=O)c2cccnc2)cc1 (racemic) [Metoprololnicotinsäure, Metoprololnicotinsäureester-HCl]",freie Base im Zielkompartiment (Retardwerte),0 µg
